# In PubChem BioAssay (NCI):
#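 Step 1: Grow cells in 96-well plates. Step 2: Expose to compound for 48 hours at 5 concentrations. Step 3: Interpolate endpoints linearly; if unreached, use highest concentration. The concentration for 50% growth inhibition is given as GI50. TGI: concentration producing complete growth inhibition.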
# Key:
# Assay in all cases: NCI anticancer screen, dose series, 48 h
# 786-0 renal = test system: 786-0 renal
# BT-549 breast = test system: BT-549 breast
# EKVX NSCLC = test system: EKVX NSCLC
# LOX IMVI melanoma = test system: LOX IMVI melanoma
# NCI-H226 lung = test system: NCI-H226 lung
# NCI-H522 lung = test system: NCI-H522 lung
# NCI/ADR-RES ovarian = test system: NCI/ADR-RES ovarian
# SF-539 CNS = test system: SF-539 CNS
# SK-MEL-5 melanoma = test system: SK-MEL-5 melanoma
# SN12C renal = test system: SN12C renal
Compound,TGI (786-0 renal) [µM],TGI (BT-549 breast) [µM],TGI (EKVX NSCLC) [µM],TGI (LOX IMVI melanoma) [µM],TGI (NCI-H226 lung) [µM],TGI (NCI-H522 lung) [µM],TGI (NCI/ADR-RES ovarian) [µM],TGI (SF-539 CNS) [µM],TGI (SK-MEL-5 melanoma) [µM],TGI (SN12C renal) [µM],GI50 (BT-549 breast) [µM],GI50 (EKVX NSCLC) [µM],GI50 (NCI-H226 lung) [µM],GI50 (NCI-H522 lung) [µM],GI50 (NCI/ADR-RES ovarian) [µM],GI50 (SF-539 CNS) [µM],GI50 (SK-MEL-5 melanoma) [µM],GI50 (LOX IMVI melanoma) [µM],GI50 (SN12C renal) [µM]
O=C(O)C1CSC2(CCCN(Cc3ccccc3)C2)N1 (stereo not given),> 100,> 100,> 100,> 100,> 100,> 100,> 100,> 100,> 100,> 100,–,–,–,–,–,–,–,–,–
Cc1nccn1S(=O)(=O)c1ccc(Cl)cc1,> 100,> 100,> 100,> 100,> 100,> 100,> 100,> 100,> 100,> 100,–,–,–,–,–,–,–,–,–
Cc1ccc(C(=O)N/N=C(\N=Nc2ccccc2C(=O)O)c2ccc(N(C)C)cc2)cc1,> 100,> 100,> 100,> 100,> 100,> 100,> 100,> 100,> 100,> 100,–,–,–,–,–,–,–,–,–
CNC(=O)C1OC(n2cnc3c(NCc4cccc(I)c4)nc(Cl)nc32)C(O)C1O (stereo not given),46.8,28.5,31.5,27.2,23,–,24,23,42.2,41,–,–,–,–,–,–,–,–,–
O=C(Cn1c(=O)oc2ccc(C(=O)c3cccc(Cl)c3)cc21)c1ccccc1,–,> 100,> 100,> 100,> 100,> 100,> 100,> 100,> 100,> 100,–,–,–,–,–,–,–,–,–
N=C(N)c1ccc(-c2ccc(-c3ccc(Cl)cc3Cl)s2)nc1,–,28.6,6.56,–,28.4,4.88,3.64,3.06,3.24,–,6.53,2.47,5.02,2.19,1.88,1.66,1.77,–,–
CCC(C)N1CN(c2ccccc2)C2(CCN(CCCC3(c4ccc(F)cc4)OCCO3)CC2)C1=O (stereo not given),13.3,5.82,17.6,21.6,32.7,10.2,27.6,10.1,8.24,18.9,–,–,–,–,–,–,–,–,–
Cc1cc(S(=O)(=O)Nc2n[nH]c(Nc3ccccc3)n2)c(SSc2cc(Cl)c(C)cc2S(=O)(=O)Nc2n[nH]c(Nc3ccccc3)n2)cc1Cl,–,> 100,> 100,> 100,–,–,> 100,> 10,> 100,> 100,–,–,–,–,–,–,–,–,–
Nc1c(C(=O)O)nnc2cc(Cl)ccc12,> 100,> 100,> 100,> 100,> 100,> 100,> 100,> 100,> 100,> 100,–,–,–,–,–,–,–,–,–
CCc1n[nH]c(=O)[nH]1,> 100,> 100,> 100,> 100,–,> 100,> 100,> 100,> 100,> 100,–,–,–,–,–,–,–,–,–
CC1=NN(c2nc(N)nc(-c3cc4ccccc4oc3=N)n2)C(C)(C)C1,29.8,47,32.8,–,30.4,39.9,43.9,34.1,30.6,43,–,–,–,–,–,–,–,–,–
COC(=O)/C=C\C(C#N)(C#N)N=Cc1ccc(Br)cc1,> 48.9,25.2,29.6,5.26,20.6,2.95,76,–,3.92,17.8,–,–,–,–,–,–,–,–,–
COC(=O)C(CNC(=O)/C=C/c1ccc(OC(C)=O)c(OC(C)=O)c1)NC(=O)/C=C/c1ccc(OC(C)=O)c(OC(C)=O)c1 (stereo not given),> 100,> 100,> 100,> 100,> 100,> 100,–,> 100,> 100,> 100,–,–,–,–,–,–,–,–,–
CCOC(=O)CN1C(=O)C(=O)N(c2ccc(OC)c3ccccc23)C1=O,> 100,> 100,> 100,> 100,> 100,> 100,> 100,> 100,> 100,> 100,–,–,–,–,–,–,–,–,–
COc1cc2nc(-c3cccs3)nc(N3C(c4cc(OC)c(OC)c(OC)c4)=NNC(=O)c4ccccc43)c2cc1OC,> 100,39.6,73.5,45.8,> 100,> 100,9.25,44.6,> 100,51.3,–,–,–,–,–,–,–,–,–
Cc1oc2nc(N(C)C)n3cnnc3c2c1C,> 100,> 100,> 100,–,> 100,> 100,> 100,> 100,> 100,> 100,–,–,–,–,–,–,–,–,–
Nc1ccn(CC(O)c2cc3ccccc3[nH]2)c(=O)n1 (stereo not given),> 100,> 100,> 100,> 100,> 100,> 100,> 100,> 100,> 100,> 100,–,–,–,–,–,–,–,–,–
O=C(CN1CCN(c2ccccn2)CC1)N1CCCn2c1nc1ccccc1c2=O,> 100,> 100,> 100,> 100,> 100,> 100,> 100,> 100,> 100,> 100,–,–,–,–,–,–,–,–,–
COc1ccc(S(=O)(=O)Nc2cc(Sc3cccc4cccnc34)c(O)c3ccccc23)cc1,–,16.9,10.9,–,19.9,3.74,12.2,6.52,2.85,4.99,2.65,1.44,2.28,1.36,0.707,1.49,1.33,0.372,1.06
Cc1cc(OCc2nnc3n2N=C(c2cc(F)c(Cl)cc2Cl)/C(=C/c2ccc(-c4ccc(Cl)cc4)o2)S3)ccc1Cl,> 50,> 50,> 50,> 50,> 50,> 50,> 50,–,> 50,> 50,–,–,–,–,–,–,–,–,–
CCOC(=O)C1CCCN1C(=O)c1ccccc1Cl (stereo not given),> 100,> 100,> 100,> 100,> 100,> 100,> 100,> 100,> 100,> 100,–,–,–,–,–,–,–,–,–
